# Results as given in patent publication US12329158B2, “Large-scale methods of uniformly coating packaging surfaces with a volatile antimicrobial to preserve food freshness” (AGROFRESH INC., priority 2013, dated 2025).
# Columns and labels:
# Epidermophyton floccus = assay: In vitro volatile assay (Example 26); format: cell-based; settings: Epidermophyton, 120 h, 5 days at 28 C, 100% control, read-out: MIC (mg/L) Epidermophyton floccus
# Botrytis cinerea [1] = assay: Dose response, vapor-coated clamshells; strawberries (Example 3); format: in vivo; settings: Inoculated Fruit, sublimation
# Description: Five milligrams of Compound A was dissolved in 1 ml of ethanol prior to being uniformly administered to the interior of the clamshell by painting or spraying, and then dried for 5 minutes. After coating the clamshells with Compound A using various application techniques (i.e., sublimation, spraying, or painting), eight ethanol-washed strawberries were placed in the clamshell with stem end facing downwards. Each strawberry fruit was wounded using a T15 screwdriver tip to a uniform depth of eight mm (8 mm). […] Uninoculated strawberries were removed from their commercial package, and directly transferred into treated clamshells without any washing or inoculation steps.
# Treated clamshells lids were closed, and then placed at 1° C. for an initial time period of 5 days. Clamshells were then removed from low temperature, and held for a second time period of 6 days at room temperature where the point of inoculation on the strawberry fruits was assessed for indication of disease incidence reported as a percentage (%). Severity of disease incidence was also reported.
# This in vivo assay was used to evaluate the ability of vaporized Compound A to volatilize from a clamshell in order to control or inhibit pathogenic microorganisms. This experiment was conducted exactly as described in Example 1, with a few exceptions. After equilibrating the clamshell overnight at 21° C., Compound A was administered to the clamshell as a vapor only. In addition, Compound A was vapor-coated onto the surface of the clamshell at a final treatment rate of 3.16 mg/clamshell, 1 mg/clamshell, or 0.316 mg/clamshell. After vapor-coating application, Compound A headspace was permitted to equilibrate overnight at 21° C. Strawberries were inoculated with Botrytis cinerea, placed within the clamshells for an initial time period, and assessed for disease incidence and severity over a second time period as described in Example 1.
# Glomerella cingulata = assay: Volatile MIC assay (Example 11); format: cell-based; settings: Colletotrichum gloeosporioides, G. cingulata
# Description: A 3-mL volume of full-strength Potato Dextrose Agar (PDA) is added to each well. After cooling, 1 μL of 1×10^5 spores per mL of Botrytis cinerea, Penicillium expansum, Alternaria alternata, Glomerella cingulata, Penicillium digitatum, Monilinia fruticola, Aspergillus brasiliensis, Colletotrichum acutatum, Fusarium sambucinum, Phytophthora capsici, Geotrichum candidum, Aspergillus niger, Diplodia gossypina or Diaporthe citrii suspension is spotted onto the center of the agar. […] The headspace around the inoculum is then sealed inside the well by the film with the adhering disk containing the fungicide by inverting the plates over the treated disks and sealing to prevent any of the chemical from flaking from the disk and falling onto the inoculated agar. After 3 days of storage at 23° C., cultures are evaluated for percent growth relative to control.
# Penicillium digitatum = assay: Volatile MIC assay (Example 11); format: cell-based; settings: P. digitatum
# Description: (§1) A 3-mL volume of full-strength Potato Dextrose Agar (PDA) is added to each well. After cooling, 1 μL of 1×10^5 spores per mL of Botrytis cinerea, Penicillium expansum, Alternaria alternata, Glomerella cingulata, Penicillium digitatum, Monilinia fruticola, Aspergillus brasiliensis, Colletotrichum acutatum, Fusarium sambucinum, Phytophthora capsici, Geotrichum candidum, Aspergillus niger, Diplodia gossypina or Diaporthe citrii suspension is spotted onto the center of the agar. A Whatman #1 filter disk (Cat. No. 1001-0155) is placed, in duplicate, on the underside of a polyethylene PCR plate sealing film. […] The headspace around the inoculum is then sealed inside the well by the film with the adhering disk containing the fungicide by inverting the plates over the treated disks and sealing to prevent any of the chemical from flaking from the disk and falling onto the inoculated agar. After 3 days of storage at 23° C., cultures are evaluated for percent growth relative to control.
# Geotrichum candidum = assay: Volatile MIC assay (Example 11); format: cell-based; settings: G. candidum
# Description: as §1
# Diplodia gossypina = assay: Volatile MIC assay (Example 11); format: cell-based; settings: Lasiodiplodia theobromae, D. gossypina
# Description: as §1
# Botrytis cinerea [2] = assay: Volatile MIC assay (Example 11); format: cell-based; settings: B. cinerea
# Description: as §1
# Fusarium sambucinum = assay: Volatile MIC assay (Example 11); format: cell-based; settings: F. sambucinum
# Description: as §1
# Colletotrichum acutatum = assay: Volatile MIC assay (Example 11); format: cell-based; settings: C. acutatum
# Description: as §1
# Aspergillus brasiliensis = assay: Volatile MIC assay (Example 11); format: cell-based; settings: A. brasiliensis
# Description: as §1
# Aspergillus niger = assay: Volatile MIC assay (Example 11); format: cell-based; settings: A. niger
# Description: as §1
# Diaporthe citrii = assay: Volatile MIC assay (Example 11); format: cell-based; settings: D. citrii
# Description: as §1
# Penicillium expansum = assay: Volatile MIC assay (Example 11); format: cell-based; settings: P. expansum
# Description: as §1
# Phytophthora capsici = assay: Volatile MIC assay (Example 11); format: cell-based; settings: P. capsici
# Description: as §1
# Monilinia fruticola = assay: Volatile MIC assay (Example 11); format: cell-based; settings: M. fruticola
# Description: as §1
# Alternaria alternata = assay: Volatile MIC assay (Example 11); format: cell-based; settings: A. alternata
# Description: as §1
structure (smiles),measurement,setting,value
"OB1OCc2cc(F)ccc21 [Compound A, 5-fluoro-1,3-dihydro-1-hydroxy-2,1-benzoxaborole]",MIC,Epidermophyton floccus,2 mg/L
same,Gray Mold Severity (0-4),"Botrytis cinerea [1]; 0.316 mg per clamshell, Day 1",0.4
same,Gray Mold Severity (0-4),"Botrytis cinerea [1]; 0.316 mg per clamshell, Day 2",1.3
same,Gray Mold Severity (0-4),"Botrytis cinerea [1]; 0.316 mg per clamshell, Day 3",2.2
same,Gray Mold Severity (0-4),"Botrytis cinerea [1]; 0.316 mg per clamshell, Day 4",3.4
same,Gray Mold Severity (0-4),"Botrytis cinerea [1]; 0.316 mg per clamshell, Day 5",3.8
same,Gray Mold Severity (0-4),"Botrytis cinerea [1]; 0.316 mg per clamshell, Day 6",3.9
same,Gray Mold Severity (0-4),"Botrytis cinerea [1]; 1.00 mg per clamshell, Day 1",0.0
same,Gray Mold Severity (0-4),"Botrytis cinerea [1]; 1.00 mg per clamshell, Day 2",0.0
same,Gray Mold Severity (0-4),"Botrytis cinerea [1]; 1.00 mg per clamshell, Day 3",0.0
same,Gray Mold Severity (0-4),"Botrytis cinerea [1]; 1.00 mg per clamshell, Day 4",0.1
same,Gray Mold Severity (0-4),"Botrytis cinerea [1]; 1.00 mg per clamshell, Day 5",0.4
same,Gray Mold Severity (0-4),"Botrytis cinerea [1]; 1.00 mg per clamshell, Day 6",0.7
same,Gray Mold Severity (0-4),"Botrytis cinerea [1]; 3.16 mg per clamshell, Day 1",0.0
same,Gray Mold Severity (0-4),"Botrytis cinerea [1]; 3.16 mg per clamshell, Day 2",0.0
same,Gray Mold Severity (0-4),"Botrytis cinerea [1]; 3.16 mg per clamshell, Day 3",0.0
same,Gray Mold Severity (0-4),"Botrytis cinerea [1]; 3.16 mg per clamshell, Day 4",0.0
same,Gray Mold Severity (0-4),"Botrytis cinerea [1]; 3.16 mg per clamshell, Day 5",0.1
same,Gray Mold Severity (0-4),"Botrytis cinerea [1]; 3.16 mg per clamshell, Day 6",0.2
same,MIC,Glomerella cingulata,17.9 µg/mL
same,MIC,Penicillium digitatum,2.2 µg/mL
same,MIC,Geotrichum candidum,8.9 µg/mL
same,MIC,Diplodia gossypina,1.1 µg/mL
same,MIC,Botrytis cinerea [2],2.2 µg/mL
same,MIC,Fusarium sambucinum,1.1 µg/mL
same,MIC,Colletotrichum acutatum,4.4 µg/mL
same,MIC,Aspergillus brasiliensis,2.2 µg/mL
same,MIC,Aspergillus niger,2.2 µg/mL
same,MIC,Diaporthe citrii,2.2 µg/mL
same,MIC,Penicillium expansum,1.1 µg/mL
same,MIC,Phytophthora capsici,1.1 µg/mL
same,MIC,Monilinia fruticola,2.2 µg/mL
same,MIC,Alternaria alternata,2.2 µg/mL
